Source: patent US11478558B2, “Prostate-specific membrane antigen targeted high-affinity agents for endoradiotherapy of prostate cancer” (The Johns Hopkins University, priority 2017, dated 2022)

Tests used:
PSMA+ PC3 PIP tumors = assay: Radiopharmaceutical therapy in PC3 PIP flank tumor growth delay model; assay type: in vivo, NOD/SCID mice
Experimental: (§1) A pilot treatment study using NOD/SCID mice (n=10 per group) bearing PSMA+ PC3 PIP tumors with a single intravenous dose of 111 MBq (3 mCi) of agents ^177Lu-PSMA-617, ^177Lu-1, ^177Lu-3 and ^177Lu-5 and the control group (with saline treatment) were performed (Table 8). Volume of the all control group mice reached >5-fold of their initial tumor volume within 14 days. Mouse euthanized for treated group within 4 weeks of post-injection was mainly due to sudden body weight loss and not related to tumor growth. […] The difference among treatment groups was statistically significant (P=0.002) by the log-rank test compared to the untreated group. […] After 8-weeks, three mice from each treated group were used for detailed blood analysis and necropsy study. All animals underwent radiotherapy study had normal creatinine (0.3-0.4 mg/dL) and blood urea nitrogen levels. […] Additionally, a significant lowering of platelet for all three treated mice from ^177Lu-PSMA-617 compared control group and other treated groups.
Median survival for the ^177Lu-PSMA-617 was 133 days vs. 234 days for ^177Lu-1.
The remaining treated mice survived tumor-free for 10 months and were evaluated for toxicity.
(§2) Antitumor efficacy studies were performed in PC3 PIP flank tumor growth delay model to evaluate the therapeutic efficacy of a single dose intravenous injection of ^177Lu-L1, ^177Lu-L3, ^177Lu-L5 and ^177Lu-PSMA-617 vs. saline. This was a head-to-head comparison study and same batch of tumor-bearing mice and radioactivity. The study was commenced 14-18 days post-inoculation of the xenografts, when all the mice had tumor volume of about ˜60-85 mm^3 (Table 8). All the living mice were monitored for 8 weeks to monitor the growth delay. Mice body weight and tumor volume were monitored every 3 days throughout the experiment. Endpoint criteria defined by the institute ACUC was weight loss≥15%, a tumor volume>1800 mm^3, active ulceration of the tumor or abnormal behavior indicating pain or unease. After 8-weeks, three mice from each group were submitted for detail necropsy and blood analysis. Mice group treated with ^177Lu-1 and ^177Lu-PSMA-617 were continued to monitor until the endpoint. These definitions were also used for Kaplan-Meier analysis. The probability of reaching 5 times the initial tumor volume was characterized using Kaplan-Meier curves, and comparison was performed using the log-rank test. The formula used for calculation of tumor volume was V=width^2×length/2. Toxicity of the ^177Lu-treatment groups after 8-weeks and in healthy CD-1 (n=3) mice treated with 111 MBq was evaluated by pathologic examination at the Johns Hopkins Pathology Core facility with serum metabolic panel, blood counts, and full necropsy including detailed histopathology of kidneys, salivary glands and lacrimal glands.

[1] = test system: PSMA(+) PC3 PIP and PSMA(−) PC3 flu tumor xenografts; assay: Biodistribution of 177Lu compounds (Example 5); settings: 3 h post-injection
PC3-ML-Luc-PSMA = assay: Treatment study in micrometastatic PC3-ML-Luc-PSMA model; assay type: in vivo, mouse; settings: 37 MBq
Description: (middle) Changes in bodyweight during the treatment study. (bottom) Kaplan-Meier survival curve for treatment study in micrometastatic PC3-ML-Luc-PSMA model, median survival for 51 days (untreated) vs 52 days for ^177Lu-PSMA-617 (37 MBq) and 56 days for 225Ac-1 (37 kBq) and 79 days for 225Ac-1 (74 kBq);

PSMA(+) PC3 PIP cells = assay: Cell uptake, cell surface binding and internalization in PSMA(+) PC3 PIP cells; assay type: cell-based, human
[2] = Blood analysis and necropsy after radiotherapy; assay type: in vivo, NOD/SCID mice
Experimental: as §1
Significant and concerning changes were identified in testes, and lacrimal grands primarily (FIG. 25) for all treated groups. […] Parotid glands, usually adjacent to exorbital lacrimal gland, are conspicuously spared and there were mild changes in the group treated ^177Lu-PSMA-617. […] T lymphoblastic lymphoma is accelerated by irradiation and some carcinogens, and is associated with interactions of endogenous retroviruses/retroelements in NOD/SCID mouse strains. […] The cells are large up to 25 μm, with very large nuclei (for a mouse) usually 2-3 nucleoli, and a high mitotic rate. Testis and lacrimal gland degenerative changes indicate that this animal did receive a treatment similar to other treated mice.
as §2

PSMA(−) PC3 flu cells = assay: Cell uptake in PSMA(−) PC3 flu cells; assay type: cell-based, human
[3] = 111 MBq (3 mCi), after eight weeks, n=3

## O=C([O-])CN1CCN(CC(=O)[O-])CCN(CC(=O)NCC2CCC(C(=O)N[C@@H](Cc3ccc4ccccc4c3)C(=O)NCCCC[C@H](NC(=O)N[C@@H](CCC(=O)O)C(=O)O)C(=O)O)CC2)CCN(CC(=O)[O-])CC1.[177Lu+3] (stereo partly shown) [^177Lu-PSMA-617, reference compound]
PSMA+ PC3 PIP tumors; 111 MBq
  Median survival After 8 weeks post-treatment: Not reached
  Tumors above stated relative tumor growth after week 8 post-treatment (Vt/V0): one tumor > 4
PSMA+ PC3 PIP tumors; 111 MBq, followed to predefined end-point
  median survival: 133 days
PSMA+ PC3 PIP tumors; 111 MBq, week 8 post-treatment
  Tumor disappear (number of mice): disappear 5
PSMA+ PC3 PIP tumors; single i.v. dose 111 MBq (3 mCi)
  Average final body weight: 24.6 ± 3.6 gram
[1]
  Kidney uptake: 9.81±6.54 % ID/g
PC3-ML-Luc-PSMA
  median survival: 52 days
PSMA(+) PC3 PIP cells; 1 h
  Cell uptake PC3 PIP: 42.2 ± 0.80 % incubated dose per 1 x 10^6 cells
  PC3 PIP cell Int (internalization): 18.8 ± 1.2 % incubated dose per 1 x 10^6 cells
PSMA(+) PC3 PIP cells; 1 h, ZJ43 10 μM
  Blockade PC3 PIP: 0.1 ± 0.0 % incubated dose per 1 x 10^6 cells
PSMA(+) PC3 PIP cells; 1 h to 24 h
  total uptake within the PSMA(+) PC3 PIP cells: ~40 % of the incubated dose
PSMA(+) PC3 PIP cells; 2 h
  Cell uptake PC3 PIP: 44.6 ± 1. % incubated dose per 1 x 10^6 cells
  PC3 PIP, line without name (position of cell internalization): 21.1 ± 0.9 % incubated dose per 1 x 10^6 cells
PSMA(+) PC3 PIP cells; 4 h
  Cell uptake PC3 PIP: 47.6 ± 1.13 % incubated dose per 1 x 10^6 cells
  PC3 PIP cell int (internalization): 26.1 ± 1.0 % incubated dose per 1 x 10^6 cells
PSMA(+) PC3 PIP cells; 24 h
  Cell uptake PC3 PIP: 54.2 ± 0.21 % incubated dose per 1 x 10^6 cells
  PC3 PIP cell int (internalization): 26.4 ± 0.8 % incubated dose per 1 x 10^6 cells
[2]; [3]
  Albumin: 2.9 ± 0.2 g/dL
  Blood urea nitrogen: 23.3 ± 2.5 mg/dL
  Hematocrit: 42.9 ± 4.5%
  Hemoglobin: 12.8 ± 1.0 g/dL
  Lymphocytes: 0.7 ± 0.1 K/μL
  Mean Corpuscular Value(MCV): 52.2 ± 1.6 fL
  Neutrophils: 3.5 ± 3.8 K/μL
  Platelets: 916.0 ± 141.6 K/μL
  Red blood cells: 8.2 ± 0.7 M/μL
  Total protein: 5.5 ± 0.5 g/dL
  White blood cells: 5.05 ± 4.1 K/μL
[2]; 111 MBq, after 8 weeks
  H&E pathology of testis: most significant changes in testis
  neutrophil counts: up to 3.5±3.8 K/mL
PSMA(−) PC3 flu cells; 1 h
  Cell uptake PC3 flu: 0.1 ± 0.01 % incubated dose per 1 x 10^6 cells
PSMA(−) PC3 flu cells; 2 h
  Cell uptake PC3 flu: 0.1 ± 0.0 % incubated dose per 1 x 10^6 cells
PSMA(−) PC3 flu cells; 4 h
  Cell uptake PC3 flu: 0.1 ± 0.06 % incubated dose per 1 x 10^6 cells
PSMA(−) PC3 flu cells; 24 h
  Cell uptake PC3 flu: 0.1 ± 0.01 % incubated dose per 1 x 10^6 cells
